“Also recorded” adds a separate entry of the source.
Tests used:
[1] = molecular target: T1, peptide transporter (PEPT1) (Homo sapiens, UniProt P46059); settings: in vivo
T1 sequence (P46059 1-708): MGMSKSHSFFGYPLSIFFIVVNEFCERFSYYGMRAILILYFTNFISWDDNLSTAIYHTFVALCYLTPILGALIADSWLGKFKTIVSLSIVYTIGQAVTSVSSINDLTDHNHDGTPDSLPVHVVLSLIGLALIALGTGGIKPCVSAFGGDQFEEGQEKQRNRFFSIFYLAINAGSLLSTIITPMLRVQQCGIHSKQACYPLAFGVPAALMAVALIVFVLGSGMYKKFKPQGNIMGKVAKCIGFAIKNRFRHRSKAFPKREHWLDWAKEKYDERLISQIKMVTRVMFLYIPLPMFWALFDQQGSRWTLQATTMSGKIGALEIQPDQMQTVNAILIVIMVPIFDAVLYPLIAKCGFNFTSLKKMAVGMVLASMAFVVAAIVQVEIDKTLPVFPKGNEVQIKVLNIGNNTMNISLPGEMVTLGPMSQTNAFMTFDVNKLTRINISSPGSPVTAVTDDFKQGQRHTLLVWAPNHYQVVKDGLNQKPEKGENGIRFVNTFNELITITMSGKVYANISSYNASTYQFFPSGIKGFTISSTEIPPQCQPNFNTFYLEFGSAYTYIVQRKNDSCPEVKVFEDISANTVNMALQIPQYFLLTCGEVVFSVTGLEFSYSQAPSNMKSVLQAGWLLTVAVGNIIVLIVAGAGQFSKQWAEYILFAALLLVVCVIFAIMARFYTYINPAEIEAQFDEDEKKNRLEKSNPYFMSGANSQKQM

ENS neurons in HIOs+NCCs = test: Live imaging of Ca2+ flux (GCaMP6f) in HIOs+NCCs in vitro; type: cell-based, human; settings: 30 mM; HIOs+GCaMP6 expressing NCCs
Description: The accessibility of in vitro grown HIOs allowed us to test the functionality of neurons using live imaging with the Ca2+ sensor GCaMP6f19. To do this, Applicant generated HIOs and incorporated into them NCCs that were derived from a PSC line containing GCaMP6 (FIG. 17A). Imaging of neural activity in HIOs grown for 8 weeks in vitro detected broad, spontaneous, and rapid calcium transients within neurons. When individual neurons were monitored there was an obvious periodicity of calcium efflux in the range of 3-4 seconds/neuron (FIGS. 17B and 17C).

HIO+NCC tissues = test: Ex-vivo intestinal motility, organ bath, muscle strips of engrafted HIO+NCC; type: cell-based, human
HIO+NCC tissue = type: cell-based, human
[2] = system: vagal-level Hox genes HOXB3, HOXB5, and HOXB7; test: Posteriorization of human PSC-derived neurospheres/NCCs, Hox gene expression by qRT-PCR; type: cell-based; settings: two days (48 hours) at the neurosphere stage; RA 2 μM
Description: Cells were fed mTeSR1 media and routinely passaged using Dispase II (Gibco). NCCs and HIOs were generated and combined at an early stage of intestinal differentiation to generate HIOs containing ENS. Briefly, for NCC generation (FIG. 1), hPSCs were treated with collagenase IV (500 U/mL) in mTeSR1 for 60 min to detach colonies. Cells were washed to remove collagenase, then gently triturated and resuspended in neural induction media on non-TC treated petri dishes. Neural induction media was changed daily and retinoic acid (2 μM) was added on days 4 and 5 for posteriorization. Day 6 free-floating neurospheres were plated on fibronectin (3 μg/cm2) and fed neural induction media without RA for 4 days. Migrated cells were collected using a brief Accutase treatment (2-3 min) and passaged onto fibronectin or used immediately for combining with HIOs. NCCs were differentiated essentially as described for neuroglial 9 and mesenchymal lineages 36. […] Following the formation of gut tube spheroids, Applicant gently centrifuged spheroids +/−NCCs and embedded them in Matrigel. […]
Total RNA from cells and organoids was isolated using NucleoSpin RNA isolation Kit (Macherey-Nagel). […] Applicant performed qPCR using QuantiTect SYBR Green PCR Kit (Qiagen) on a BioRad CFX96 Real-Time PCR Detection System. […]

[3] = system: vagal-level Hox genes HoxB3 and HoxB7; test: Chick cranial NCC culture, Hox gene expression; type: cell-based; settings: 2 μM RA or 4 ng/mL FGF4 for 48 hours
Description: Chicken eggs were purchased from Charles River and incubated at 39° C. until they reached the desired Hamburger and Hamilton stage. For chicken NCC culture, dorsal neural tubes from cranial or trunk region of HH8 embryos were dissected by Gastromaster and cultured on matrigel-coated tissue culture dish with NCC culture medium (BajPai R et al, 2010) for 24 hours. The neural ectoderm was scrapped off the plate by tungsten needle after NCCs migrated out from the neural tube explants. The NCCs remained on the plate were then treated with 4 ng/mL FGF4 or 2 μM Retinoic acid for 48 hours. For NCCs injection, GFP-labeled human PSC-derived NCCs were collected and injected intersomitically into HH10-12 chicken embryos. The embryos were harvested around HH38 for analysis.

[4] = system: human pluripotent stem cells; test: Directed differentiation of human pluripotent stem cells into definitive endoderm; type: cell-based; settings: 100 ng ml-1 Activin A for 3 d
Description: Human intestinal organoids were generated and maintained as previously described (Spence et al, Nature 2011 and McCracken et al. Nat. Protoc. 2011). Human embryonic stem cells and induced pluripotent stem cells were grown in feeder-free conditions in six-well Nunclon surface plates (Nunc) coated with Matrigel (BD Biosciences) and maintained in mTESR1 media (Stem Cell Technologies). For induction of definitive endoderm (DE), human ES or iPS cells were passaged with Dispase or Accutase (Invitrogen) and plated at a density of 100,000 cells per well in a Matrigel-coated, Nunclon surface 24-well plate. For Accutase split cells, 10 μM Y27632 compound (Sigma) was added to the media for the first day. Cells were allowed to grow until they reached 80-95% confluence. Cells were then treated with 100 ng ml-1 of Activin A for 3 d as previously described (D'Amour et al. Nat. Biotechnol. 2005). DE was then treated with hindgut induction medium (RPMI 1640, 2 mM L-glutamine, 2% decomplemented FBS, penicillin-streptomycin and 100 ng ml-1 Activin A) for 4 d with 500 ng mL-1 FGF4 (R&D) and 3 μM Chiron 99021 (Tocris) to induce formation of mid-hindgut spheroids. […]

With `C[C@H](CS)C(=O)N1CCC[C@H]1C(=O)O` [Captopril] as the molecule, how does the “fluorescence within the epithelium after injection of labeled peptide + competitive inhibitor” value [1] read?
Its value is “little to no fluorescence was observed”.

`[Cl-].[K+]` [KC1] was tested. Which neuronal calcium response (ENS neurons in HIOs+NCCs) did it give?
The neuronal calcium response was “large wave of neuronal calcium efflux”.

Which “effect on relaxation after DMPP stimulation” value (HIO+NCC tissues; L-NAME applied 5 min before DMPP (10 μM) stimulation) does the source give for `COC(=O)[C@@H](N)CCCNC(=N)N[N+](=O)[O-]` [L-NAME, NG-nitro-L-arginine methyl ester] here?
The value was “significantly decreased the relaxation”.

How did the “effect on spontaneous phasic contractions (ICC activity)” value (HIO+NCC tissues; Methylene Blue 50 μM, no neuronal stimulation) turn out when `CN(C)c1ccc2nc3ccc(=[N+](C)C)cc-3sc2c1` [Methylene Blue] was run?
Its value is “abolished phasic contractions; also recorded: loss of contractile activity”.

For `NC1=N[C@H](O)[C@H]2[C@H]3O[C@]4(O)O[C@@H]([C@@H](O)[C@@]2(N1)[C@@H]4O)[C@]3(O)CO` [TTX, tetrodotoxin], which “effect on contractions/motility triggered by low voltage EFS” value (HIO+NCC tissue) is on record?
The value was “completely inhibited and lost”.

What about the “effect on muscle relaxation in response to DMPP and or veratridine” value (HIO+NCC tissues) of the same molecule?
Its value is “inhibited the ability of the neurons to induce muscle relaxation”.

B1: FGF4: growth factor tested as a different posterizing factor (protein, UniProt P08620 31-206, looked up)
Fibroblast growth factor 4: APTAPNGTLEAELERRWESLVALSLARLPVAAQPKEAAVQSGAGDYLLGIKRLRRLYCNVGIGFHLQALPDGRIGGAHADTRDSLLELSPVERGVVSIFGVASRFFVAMSSKGKLYGSPFFTDECTFKEILLPNNYNAYESYKYPGMFIALSKNGKTKKGNRVSPTMKVTHFLPRL
How did the “expression of vagal-level Hox genes in human PSC-derived NCCs” value [2] turn out when B1 was run?
Its value is “little effect”.

And the “Hox gene expression in chick cranial NCCs” value [3]?
Its value is “had no effect”.

B2: Activin A: growth factor used to induce definitive endoderm (protein, UniProt P08476 311-426, looked up)
Inhibin beta A chain: GLECDGKVNICCKKQFFVSFKDIGWNDWIIAPSGYHANYCEGECPSHIAGTSGSSLSFHSTVINHYRMRGHSPFANLKSCCVPTKLRPMSMLYYDDGQNIIKKDIQNMIVEECGCS
modifications: Inhibin beta A chain
notes: growth factor used to induce definitive endoderm
B2 was tested. Which “differentiation into definitive endoderm (FOXA2 and SOX17)” value [4] did it give?
The value was “efficient differentiation into definitive endoderm”.

Reference: patent publication US11584916B2, “Method of making in vivo human small intestine organoids from pluripotent stem cells” (Children's Hospital Medical Center, priority 2014, dated 2023)
